Assay results taken from patent publication US9801856B2, “Composition of a 5-HT2A serotonin receptor modulator useful for the treatment of disorders related thereto” (Arena Pharmaceuticals, Inc., priority 2008, dated 2017).
“Also recorded” adds a separate entry of the source.

Key:
[1] = Methyl cellulose optimization: Form I to Form II conversion in water pastes (PXRD); assay type: physicochemical
Experimental: In a small scintillation vial, 152.13 mg of micronized APD125 Form I, was spiked with sufficient deionized water to make a paste; the weight of the water added, 844.60 mg was recorded, and the resulting mixture was stirred using a spatula to obtain a paste. The resulting sample, post-collection of an initial PXRD pattern, was capped, wrapped in tinfoil and stored at 40° C. until the next day, when a second PXRD pattern was obtained.
Using another small scintillation vial, 2.1183 g of micronized APD125 Form I, was mixed with 3.3619 g of a 0.5% w/v methyl cellulose to obtain a paste, which was immediately sampled for PXRD analysis to verify starting APD125 solid-state form, post-methyl cellulose addition. The remaining sample in the scintillation vial was split into two portions, placed in capped, parafilm-wrapped scintillation vials, which were then wrapped in tinfoil and stored at 40° C. and room temperature, respectively. […]
APD125 micronized Form I/PVP (1:8) blend, weighing 3.0081 g and containing 0.5% w/w methyl cellulose, was mixed with 3.71277 g of water to form a paste. After sampling the paste for an initial PXRD pattern, the remaining paste was split into two portions, placed in capped, parafilm-wrapped scintillation vials, which were then wrapped in tinfoil and stored at 40° C. and room temperature, respectively. PXRD patterns were collected at initial (t=0), 1-day, 7-day and 21-day time points.
For each blend, materials were dispensed (minus magnesium stearate) into a glass vial and blended for about 5 minutes. Magnesium stearate was added and the mixture was blended an additional 2 minutes. The final blend was compacted into standard round concave tablets ( 5/16″ diameter) with a total tablet weight of 200 mg and hardness of 10 kp using a Carver press. For each batch of tablets, several were crushed using a mortar and pestle to obtain a fine powder, from which a small sample was taken for PXRD analysis to confirm the initial APD125 polymorphic form. The remaining powder was weighed into a Qorpak® bottle, and ca. 50% w/w deionized water was added. The resulting mixture was stirred using a micro-spatula to wet the powder and form a paste. A Teflon® lid was screwed on tightly, and the prepared samples were stored in a 40° C. oven.
(§1) PXRD measurements were obtained using a Philips (PANalytical) X'Pert PRO theta/theta diffractometer (EQ 0233) equipped with an X'Celerator RTMS detector and utilizing copper Kα radiation, operating at 45 kV and 40 mA. The instrument radius was 239.5 mm, the mask filter was 20 mm, the soller slit was 0.04 radians, and a nickel filter and sample spinning were used during data acquisition. The application and instrument control software used were X'Pert Data Collector®, version 2.0c and XPERT-PRO®, version 1.6, respectively. The API-based paste samples were scanned from 5° to 40° 2θ in continuous mode, using a step size of 0.0167° 2θ and a counting time of 40.005 seconds. The tablet granulation samples were scanned from 2° to 15° 2θ in continuous mode, using a step size of 0.0167° 2θ and a counting time of 1063.625 s.

[2] = Effect of milling and compression upon APD125 Form I (PXRD); assay type: physicochemical
Experimental: Micronized APD125 Form I, was ground using a mortar and pestle, with samples withdrawn at 1-min, 5-min and 10-min time points for PXRD analyses to evaluate the impact of grinding upon the solid-state form of APD125 Form I. PXRD patterns were obtained pre- and post-milling. Additionally, micronized APD125 Form I, was compressed at 2 kp, 5 kp and 10 kp for 1 min per sample using a Carver press. The samples were then removed from the Carver press and lightly broken up using a mortar and pestle, prior to PXRD analysis to evaluate the impact of compression upon the solid-state form of APD125 Form I. PXRD patterns were obtained pre- and post-compression.
as §1, with “The” for “The API-based paste”, “2θ.” for “2θ and a counting time of 40.005 seconds. The tablet granulation samples were scanned from 2° to 15° 2θ in continuous mode, using a step size of 0.0167° 2θ and a counting time of 1063.625 s.”

[3] = Aqueous solubility of APD125; assay type: physicochemical
[4] = target: T1, 5-HT2A serotonin receptor (Homo sapiens, UniProt P28223); assay: Phase 1 trials: waking EEG; assay type: in vivo, humans
T1 sequence (P28223 whole entry): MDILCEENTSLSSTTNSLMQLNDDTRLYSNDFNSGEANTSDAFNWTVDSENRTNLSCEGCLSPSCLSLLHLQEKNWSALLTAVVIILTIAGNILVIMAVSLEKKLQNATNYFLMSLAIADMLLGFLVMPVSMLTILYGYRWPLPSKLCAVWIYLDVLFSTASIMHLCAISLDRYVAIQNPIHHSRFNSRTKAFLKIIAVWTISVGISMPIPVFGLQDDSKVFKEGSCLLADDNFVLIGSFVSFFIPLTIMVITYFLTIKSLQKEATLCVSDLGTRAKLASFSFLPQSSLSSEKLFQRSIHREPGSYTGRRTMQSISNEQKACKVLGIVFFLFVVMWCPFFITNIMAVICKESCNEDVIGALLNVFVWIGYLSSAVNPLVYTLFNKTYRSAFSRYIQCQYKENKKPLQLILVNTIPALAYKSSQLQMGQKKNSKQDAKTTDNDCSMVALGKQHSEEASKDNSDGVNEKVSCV

[5] = target: T1, 5-HT2A serotonin receptor; assay: 5-HT2A serotonin receptor inverse agonist activity; assay type: biochemical
[6] = target: T1, 5-HT2A serotonin receptor; assay: Phase 2 trial: sleep maintenance versus placebo; assay type: in vivo, humans
[7] = Stability of APD125 in solution; assay type: physicochemical; details: in solution at 25° C.
[8] = target: T1, 5-HT2A serotonin receptor; assay: Afternoon nap model of insomnia in normal volunteers; assay type: in vivo, humans
[9] = target: T1, 5-HT2A serotonin receptor; details: cited from earlier work
5-HT2A [10] = target: T2, 5-HT2A (Rattus norvegicus, UniProt P14842); details: in vivo; cited from earlier work
T2 sequence (P14842 whole entry): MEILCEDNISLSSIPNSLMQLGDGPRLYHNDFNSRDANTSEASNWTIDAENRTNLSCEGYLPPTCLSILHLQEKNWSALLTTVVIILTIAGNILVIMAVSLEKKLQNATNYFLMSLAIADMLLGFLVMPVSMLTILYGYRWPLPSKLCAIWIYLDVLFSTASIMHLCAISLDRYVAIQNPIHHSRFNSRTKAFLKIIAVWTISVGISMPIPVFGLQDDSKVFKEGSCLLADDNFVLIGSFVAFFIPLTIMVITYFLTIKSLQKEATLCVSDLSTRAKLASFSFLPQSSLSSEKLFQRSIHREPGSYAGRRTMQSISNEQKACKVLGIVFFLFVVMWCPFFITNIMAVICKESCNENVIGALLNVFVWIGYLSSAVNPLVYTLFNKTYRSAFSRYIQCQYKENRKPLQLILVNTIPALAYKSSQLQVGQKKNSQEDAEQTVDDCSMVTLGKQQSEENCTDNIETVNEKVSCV

5-HT2A [11] = target: T2, 5-HT2A; set-up: host or cells: diabetic rats, in vivo; details: spontaneously hypertensive rats; cited from earlier work
5-HT2 receptor = details: glaucoma patients; cited from earlier work
JC virus = details: cited from earlier work
5-HT2A [12] = target: T3, 5-HT2A (Homo sapiens, UniProt P28223); set-up: host or cells: patients, in vivo; details: 24 months of treatment; cited from earlier work
T3 sequence (P28223 whole entry): as the sequence (P28223 whole entry) above

5-HT2A [13] = target: T2, 5-HT2A; set-up: host or cells: diabetic rats, in vivo; details: rats, cited from earlier work
5-HT2A [14] = target: T3, 5-HT2A; set-up: host or cells: human patients, in vivo; details: humans, lumbar disc herniation; cited from earlier work

## COc1ccc(NC(=O)Nc2ccc(F)cc2F)cc1-c1c(Br)cnn1C [APD125 Form I, 1-[3-(4-bromo-2-methyl-2H-pyrazol-3-yl)-4-methoxy-phenyl]-3-(2,4-difluoro-phenyl)-urea]
[1]; aqueous 0.5% w/w methyl cellulose at 40° C. after 10 days (FIG. 8, text)
  polymorphic form by PXRD: no evidence of conversion to Form II
[1]; aqueous 0.5% w/w methyl cellulose, room temperature and 40° C. after 16 days (FIG. 8 legend)
  polymorphic form by PXRD: substantially converted to Form II
[1]; paste in water alone at 40° C.
  polymorphic form by PXRD: converted to Form II within 24 hours
[1]; paste in water alone at room temperature and 40° C. after 24 h (FIG. 9 legend)
  polymorphic form by PXRD: substantially converted to Form II
[1]; suspended in aqueous 0.5% w/w methyl cellulose, 21 days at room temperature
  polymorphic form by PXRD: did not convert to Form II
[2]; compressed at 2 kp, 5 kp and 10 kp
  PXRD pattern after compression: all substantially comprise Form I; also recorded: consistent with APD125 Form I
[2]; mortar and pestle for 1 minute, 5 minutes and 10 minutes, listed as micronized APD125 Form I
  PXRD pattern after grinding: all substantially comprise Form I; also recorded: No significant changes in the PXRD patterns were observed

## COc1ccc(NC(=O)Nc2ccc(F)cc2F)cc1-c1c(Br)cnn1C [APD125, 1-[3-(4-bromo-2-methyl-2H-pyrazol-3-yl)-4-methoxy-phenyl]-3-(2,4-difluoro-phenyl)-urea]
[3]; aqueous buffer, phosphate buffer (about pH 7)
  solubility: ≤ 10 µg/mL
[3]; deionized water, water
  solubility: ≤ 10 µg/mL
[3]; saline (about 0.9% NaCl solution), saline or isotonic
  solubility: ≤ 10 µg/mL
[3]; simulated gastric fluid, 0.01 N HCl (about pH 2)
  solubility: ≤ 10 µg/mL
[4]
  dose of maximal effects on waking EEG: 40 to 80 mg
  effects on waking EEG: vigilance-lowering effects
[4]; waking EEG
  time of peak effects after dosing: 2 to 4 h
[5]
  activity at the 5-HT2A serotonin receptor: potent and selective 5-HT2A serotonin receptor inverse agonist
[6]; compared to placebo
  measurements of sleep maintenance: statistically significant improvements
[6]; in vivo
  next day cognitive effects: without any limiting next day cognitive effects
[7]
  stability in solution: somewhat labile
[8]; human, in vivo
  REM sleep: at the expense of REM sleep
  microarousals, number of sleep stage shifts and number of awakenings after sleep onset: decreased
  sleep onset latency: not decreased
[8]; primarily during the early part of sleep
  slow wave sleep and associated parameters: increased slow wave sleep and associated parameters in a dose-dependent manner

## O=C(c1ccc(F)cc1)C1CCN(CCn2c(=O)[nH]c3ccccc3c2=O)CC1 [ketanserin]
[9]
  activity at 5-HT2A: inverse agonist activity
5-HT2A [10]
  protection during heatstroke: protect against circulatory shocks, intracranial hypertension and cerebral ischemia during heatstroke
5-HT2A [11]
  blood pressure: stabilize blood pressure
5-HT2 receptor
  IOP: significantly lower IOP
JC virus
  JC virus infection of human glial cells: inhibited

## Cc1nc2sccn2c(=O)c1CCN1CCC(=C(c2ccc(F)cc2)c2ccc(F)cc2)CC1 [ritanserin]
[9]
  activity at 5-HT2A: inverse agonist activity
JC virus
  JC virus infection of human glial cells: inhibited

## COc1cccc(CCc2ccccc2OCC(CN(C)C)OC(=O)CCC(=O)O)c1 (stereo not shown) [sarpogrelate]
5-HT2 receptor
  IOP: significantly lower IOP
5-HT2A [12]
  urinary albumin excretion level: significantly reduced
5-HT2A [13]; intraperitoneal administration
  thermal induced pain: significant analgesic effect
5-HT2A [13]; intrathecal or intraperitoneal administration
  inflammatory pain: significant analgesic effect
5-HT2A [14]
  lower back pain, leg pain and numbness associated with sciatica: effective treatment
